For data set [1], the system named is Mucorales (Rhizopus lab strain). The data set can be described thus: Mold susceptibility test (MIC). The data set is classed as cell-based. To be noted: Table 4, read-out at 48 hr, range tested 32 ug/ml to 0.03 ug/ml.
The subject of data set [2] is Aspergillus fumigatus (ATCC strain 90906). Briefly: Mold susceptibility test (MIC, CLSI M38A). The data set is classed as cell-based. The conditions noted are these: Table 4, read-out at 48 hr, range tested 32 ug/ml to 0.03 ug/ml. The source says:
To further determine the antifungal activity of the compounds in the new formulation systems the inventors investigated the efficacy of the various agents against additional strains of mucor and Aspergillus (The Rhizomucor was a clinical isolate from a patient isolate) and the Aspergillus fumigatus (ATCC strain 90906) used was as previously described. Again, the susceptibility tests were set-up using the standardized test method (CLSI M38A). The used drugs were provided in the described final use-formulation VE-acetone/PEG/D5W. All drugs were diluted in RPMI-Mops medium: YeastOne, Sensititer (Lot 151416SA, expiration date in 2011).
Briefly, susceptibility tests were set-up using a standardized methodology (CLSI M38A). Drugs were diluted into RPMI-Mops medium (Yeast One Broth (Sensititer, product Y3462, Trek Diagnostic Systems, Cleveland, Ohio) Sensititer Lot number 151416SA—expiration date 2011). Two different strains of […] were tested, the standardized evaluation/read out was performed at 24 hours after the start of each culture. The tests were repeated twice and all MIC values (minimum inhibitory concentration) determined as an average of the two experiments.

Data set [3] can be described thus: Plasma clearance of Itraconazole and Posaconazole after IV injection in mice. The data set is classed as in vivo, Swiss Webster mice. As to the method: To avoid analytical interference from endogenous plasma proteins in the chromatogram when assaying Itra and Posa in plasma samples, an extraction/purification step utilizing precipitation of protein material with acetonitrile was performed. Briefly, plasma proteins were precipitated by adding acetonitrile to a final volume ratio plasma:acetonitrile of 1:2. The mixture was vortexed for 30 seconds and centrifuged for 5 min. at 14,000 rpm in an Eppendorff microcentrifuge. The deproteinated supernatant, containing Itra, was injected into the HPLC to determine the drug concentration.

Data set [4] concerns Aspergillus fumigatus [LAB-A from patient AF 040 511]. Briefly: Mold susceptibility test (MIC, CLSI M38A). The data set is classed as cell-based. To be noted: at 48 hr, in novel solvent.
Experimental: (§1) The range of drug concentrations tested was 150, 25, 12, 6, 3, 1.5, 0.75, 0.38, 0.19, 0.09, 0.04, and 0 (control) μg/mL. The susceptibility test was set-up using the standard method for filamentous fungi (CLSI, M38A standard). […] Zygomycete (Lab Z) inoculum was made 80% transmission in Saline. […] Posa was supplied at 2.0 mg/ml in vehicle. The Zygomycete was incubated at 33° C. for the first 24 hr to get growth established.
Data set [5] deals with Rhizomucor sp. [Lab-Z is derived from patient 041511]. The data set can be described thus: Mold susceptibility test (MIC, CLSI M38A). The data set is classed as cell-based. The conditions noted are these: at 48 hr, in novel solvent.
Experimental: as §1

≈ marks a conversion by molar mass, not a printed value. Where “and” joins values, the source holds several entries; their conditions need not be identical. Equal entries are not always repeated. Where two headings read alike, the source gives them in different places.

In the case of `CCC(C)n1ncn(-c2ccc(N3CCN(c4ccc(OCC5COC(Cn6cncn6)(c6ccc(Cl)cc6Cl)O5)cc4)CC3)cc2)c1=O` (stereo not drawn) [Itra/D, itraconazole], the MIC (usually the lowest concentration that inhibits growth of the organism) in data set [1] is 0.6 µg/mL (≈ 0.85 µM); in data set [2], 0.12 µg/mL (≈ 0.17 µM).
With `CCC(C)n1ncn(-c2ccc(N3CCN(c4ccc(OCC5COC(Cn6cncn6)(c6ccc(Cl)cc6Cl)O5)cc4)CC3)cc2)c1=O` (stereo not drawn) [Itraconazole, itraconazole], the “plasma concentration, individual” value in data set [3] (5 mg/kg IV, mice, 10 min) was 3860 ng/mL and 3590 ng/mL and 2130 ng/mL; in data set [3] (5 mg/kg IV, mice, 30 min), 1930 ng/mL; in data set [3] (5 mg/kg IV, mice, 120 min), 770 ng/mL. Further, the concentration at 10 min in data set [3] (Swiss Webster, mouse, plasma, intravenous, 5 mg/kg, 5 mg/kg IV, mice, 10 min, read-out: plasma concentration, individual) was determined as 3340 ng/mL; in data set [3] (Swiss Webster, mouse, plasma, intravenous, 5 mg/kg, 5 mg/kg IV, mice, 10 min, read-out: plasma concentration, mean), 3230 ng/mL. Besides, the concentration at 30 min in data set [3] (Swiss Webster, mouse, plasma, intravenous, 5 mg/kg, 5 mg/kg IV, mice, 30 min, read-out: plasma concentration, individual) is 1310 ng/mL; in data set [3] (Swiss Webster, mouse, plasma, intravenous, 5 mg/kg, 5 mg/kg IV, mice, 30 min, read-out: plasma concentration, mean), 1620 ng/mL. Besides, the concentration at 60 min was 770 ng/mL in data set [3] (Swiss Webster, mouse, plasma, intravenous, 5 mg/kg, 5 mg/kg IV, mice, read-out: plasma concentration, individual) and 770 ng/mL in data set [3] (Swiss Webster, mouse, plasma, intravenous, 5 mg/kg, 5 mg/kg IV, mice, read-out: plasma concentration, mean). For the same molecule, the concentration at 120 min in data set [3] (Swiss Webster, mouse, plasma, intravenous, 5 mg/kg, 5 mg/kg IV, mice, 120 min, read-out: plasma concentration, individual) came out at 640 ng/mL; in data set [3] (Swiss Webster, mouse, plasma, intravenous, 5 mg/kg, 5 mg/kg IV, mice, 120 min, read-out: plasma concentration, mean), 710 ng/mL.
With `CC[C@@H]([C@H](C)O)n1ncn(-c2ccc(N3CCN(c4ccc(OC[C@@H]5CO[C@@](Cn6cncn6)(c6ccc(F)cc6F)C5)cc4)CC3)cc2)c1=O` [Posa/D, posaconazole], the MIC in data set [1] came to 0.12 µg/mL (≈ 0.171 µM); in data set [2], 0.03 µg/mL (≈ 0.0428 µM).
On to `CC[C@@H]([C@H](C)O)n1ncn(-c2ccc(N3CCN(c4ccc(OC[C@@H]5CO[C@@](Cn6cncn6)(c6ccc(F)cc6F)C5)cc4)CC3)cc2)c1=O` [Posaconazole, posaconazole], for which the MIC in data set [4] and in data set [5] was 0.04 µg/mL (≈ 0.0571 µM) throughout. For the same molecule, the plasma concentration in data set [3] (5 mg/kg BW in mice, from ten minutes to at least 2 hours after drug injection) lay in the range of 3000 to 5000 ng/mL. In addition, the “plasma concentration, individual” value in data set [3] (5 mg/kg IV, mice, 0.2 hours) is 3430 ng/mL and 1880 ng/mL and 4590 ng/mL and 4820 ng/mL; in data set [3] (5 mg/kg IV, mice, 2.0 hours) it was 4850 ng/mL and 5030 ng/mL and 4210 ng/mL; in data set [3] (5 mg/kg IV, mice, 7.0 hours), 3860 ng/mL; in data set [3] (5 mg/kg IV, mice, 24 hours), 30 ng/mL and 560 ng/mL and 470 ng/mL; in data set [3] (5 mg/kg IV, mice, 30 hours), 140 ng/mL and 290 ng/mL and 40 ng/mL. In data set [3] (Swiss Webster, mouse, plasma, intravenous, 5 mg/kg, 5 mg/kg IV, mice, 0.2 hours), the concentration at 0.2 hours is 3680 ng/mL. The concentration at 2 hours in data set [3] (Swiss Webster, mouse, plasma, intravenous, 5 mg/kg, 5 mg/kg IV, mice, 2.0 hours, read-out: plasma concentration, individual) was found to be 4990 ng/mL; in data set [3] (Swiss Webster, mouse, plasma, intravenous, 5 mg/kg, 5 mg/kg IV, mice, 2.0 hours, read-out: plasma concentration, mean), 4770 ng/mL. The concentration at 7 hours in data set [3] (Swiss Webster, mouse, plasma, intravenous, 5 mg/kg, 5 mg/kg IV, mice, 7.0 hours, read-out: plasma concentration, individual) stood at 2610 ng/mL; in data set [3] (Swiss Webster, mouse, plasma, intravenous, 5 mg/kg, 5 mg/kg IV, mice, 7.0 hours, read-out: plasma concentration, mean) it was 3230 ng/mL. Also, in data set [3] (Swiss Webster, mouse, plasma, intravenous, 5 mg/kg, 5 mg/kg IV, mice, 24 hours), the concentration at 24 hours amounted to 350 ng/mL. In data set [3] (Swiss Webster, mouse, plasma, intravenous, 5 mg/kg, 5 mg/kg IV, mice, 30 hours), this molecule came in with a concentration at 30 hours of 160 ng/mL.

For the origin of these results see patent US10028949B2, “Parenteral formulations of lipophilic pharmaceutical agents and methods for preparing and using the same” (priority 2011, dated 2018).
